The values that follow are results of earlier work, collected in paper PMC11822212, “High-throughput screening identifies Aurora kinase B as a critical therapeutic target for Merkel cell carcinoma” (Nature Communications, 2025).

In this data set the test system is MKL-1 (VP-MCC) xenograft tumors. More on the design: method as in PMID 22572880. The following applies: prior report; cited from earlier work.

Molecules are shown by their SMILES.

`COCCn1c2c([n+](Cc3cnccn3)c1C)C(=O)c1ccccc1C2=O` [sepantronium bromide, reference compound]: the “growth of MKL-1 (VP-MCC) xenograft tumors (in words)” value is on record as “slowed the growth of MKL-1 (VP-MCC) xenograft tumors”.
